Assay results published in paper PMC10760875, “Synthesis of alnustone-like diarylpentanoids via a 4 + 1 strategy and assessment of their potential anticancer activity” (Turkish Journal of Chemistry, 2023).
Where two headings read alike, the source gives them in different places.

Columns and labels:
[1] = test system: U87-MG cells (human glioblastoma); experiment: MTT cytotoxicity assay, U87-MG; format: cell-based; details: for IC50: Homo sapiens, U-87 MG, MTT, 48 h, read-out: IC50 against U87-MG; for SI, U87-MG cells: SI = IC50 normal cells (HPAEpiC)/IC50 U87-MG
Description: (§1) GBM (U87-MG), breast cancer (MCF-7), prostate carcinoma (PC-3), and lung epithelium (HPAEpiC) cell lines were used to assess the cytotoxic action potential of compounds 5a–5l. The cells were grown in a single layer in flasks in appropriate medium containing 10% fetal bovine serum (FBS), 1% penicillin/streptomycin, and 1% L-glutamine at 37 °C and 5% CO2 to maintain the pH balance. Cells that had reached 70%–80% confluence were used in the experiments.
(§2) The 3-(4,5-dimethylthiazol-2-yl)-2,5-diphenyltetrazolium bromide (MTT) method is a widely used colorimetric method for the quantitative determination of cell viability. It is based on the reduction of the tetrazolium ring of the yellow dye MTT by living cells. As a result of the reduction, the tetrazolium ring breaks down to form a dark blue-violet formazan compound. Cell viability is then determined spectrophotometrically. The viability of untreated cells is assumed to be 100% and the viability of treated cells is determined as a percentage (%) according to those cells.
(§3) To each 96-well plate, 2 × 10^4 cells were seeded and treated with 6 different concentrations (3.125, 6.25, 12.5, 25, 50, and 100 mg/L) of the 12 tested compounds, and then the plates were incubated in a CO2 oven at 37 °C for 48 h. At the end of the incubation, 10 μL of the MTT mixture was added to each well using a pipette, which was then gently mixed for 1 min on a circular mixer. The cells were incubated in a CO2 oven at 37 °C for 3–4 h. The formazan that formed as a result of the incubation was seen as dark crystals at the bottoms of the wells. The culture medium was carefully aspirated from each well without dispersing the cell layer, and then 100 μL of dimethyl sulfoxide (DMSO) was added to each well and gently stirred on an orbital stirrer to dissolve the formazan crystals. Each sample was read at a wavelength of 570 nm in a spectrophotometer and absorbance values were obtained. A wavelength of 630 nm was used as the reference wavelength.
(§4) Percent viability and cytotoxicity values for each dose administered were calculated according to the following formulas:
(§5) • % Viability = (absorbance of the sample/absorbance of the control) × 100 • % Cytotoxicity = [1 – (absorbance of the sample/absorbance of the control)] × 100
(§6) The IC50 dose, as the concentration of inhibitor that caused a 50% decrease in cell viability, was calculated using Excel regression analysis.
(§7) Human GBM (U87-MG), breast cancer (MCF-7), prostate cancer (PC-3), and pulmonary alveolar epithelial cells (HPAEpiC) cell lines from the American Type Culture Collection (ATCC) were used for the cytotoxicity testing of compounds 5a–5l. The cells were grown as a single layer in appropriate medium containing 10% FBS, 1% penicillin/streptomycin, and 1% L-glutamine at 37 °C and 5% CO2 atmosphere.
(§8) The cytotoxicity analyses of all of the compounds were investigated by determining cell viability based on the colorimetric MTT assay, which was conducted according to the manufacturer’s guide. First, […] were seeded in a 96-well plate and then incubated at 37 °C in a 5% CO2 environment for 24 h. The medium was aspirated the following day, and […] of each concentration of the 12 tested compounds (3.125, 6.25, 12.5, 25, 50, and 100 mg/L) were separately added to each well. The plates were then incubated for 48 h at 37 °C with 5% CO2. Next, 10 μL of MTT solution was added to each well and the plate was incubated for 4 h. The culture medium was aspirated from the wells without dispersing the cell layer and then 100 μL of DMSO was added to each well and stirred on an orbital stirrer to dissolve the formazan crystals. Each sample was read at a wavelength of 570 nm in a spectrophotometer and absorbance values were obtained. A wavelength of 630 nm was used as the reference. Cell viability was expressed as a percentage compared to the untreated cells. All experiments were performed in triplicate.

[2] = test system: MCF-7 cells (breast cancer); experiment: MTT cytotoxicity assay, MCF-7; format: cell-based, human; details: for IC50: MTT, 48 h, read-out: IC50 against MCF-7; for SI, MCF-7 cells: SI = IC50 normal cells (HPAEpiC)/IC50 MCF-7
Description: as §1, §2, §3, §4, §5, §6, §7, §8

[3] = test system: PC-3 cells (prostate cancer); experiment: MTT cytotoxicity assay, PC-3; format: cell-based, human; details: for IC50: MTT, 48 h, read-out: IC50 against PC-3; for SI, PC-3 cells: SI = IC50 normal cells (HPAEpiC)/IC50 PC-3
Description: as §1, §2, §3, §4, §5, §6, §7, §8

[4] = test system: HPAEpiC cells (pulmonary alveolar epithelial cells); experiment: MTT cytotoxicity assay, healthy HPAEpiC; format: cell-based; details: Homo sapiens, Epithelial cell, 48 h, read-out: IC50 against HPAEpiC (healthy cells)
Description: as §1, §2, §3, §4, §5, §6, §7, §8

MCF-7 cells = experiment: Hoechst 33258 nuclear staining, MCF-7; format: cell-based, human; details: IC50 concentration, 48 h
Description: (§9) Cell morphological characteristics were examined via the fluorescent Hoechst 33258 staining approach. […] The nuclei in the untreated group were stained a less brilliant blue and the color was uniform. After 48 h of treatment at the IC50 concentrations of compounds 5a and 5i, the blue emission light in the apoptotic cells was considerably brighter than in the control cells. Many compound-treated cells also had condensed chromatin, and some had the shape of apoptotic bodies, which is one of the basic features of apoptotic cells (Figures 5 and 6). In line with these findings, it was previously reported that the diarylpentanoid BP-M345 exerted potential as an anticancer drug, showing its antiproliferative activity by preventing mitosis through microtubule disruption and inducing cancer cell death. Likewise, diarylpentanoid derivatives have led to intrinsic apoptosis in cancer cells by upregulating proapoptotic proteins such as Bad and Bax and downregulating prosurvival proteins such as Bcl-2 and Bcl-xL [33]. […]
(§10) Hoechst 33258 staining was used to assess significant morphological changes in the nuclear chromatin of the cells. […] Thereafter, the cells were observed using a Leica DMIRB fluorescence microscope (Leica Microsystems, Wetzlar, Germany). […]

U87-MG cells = experiment: Hoechst 33258 nuclear staining, U87-MG; format: cell-based, human; details: IC50 concentration, 48 h
Description: as §9, §10

O=C(/C=C/c1ccccc1)CCc1ccc(O)cc1 [Compound 5g, (E)-5-(4-hydroxyphenyl)-1-phenylpent-1-en-3-one]
IC50 [1]: 128 µM | SI, U87-MG cells [1]: 0.17 | IC50 ([2]; Homo sapiens, MCF7, 48 h): < 30 µM | IC50 [2]: 16.2 µM | SI, MCF-7 cells [2]: 1.31 | IC50 ([3]; Homo sapiens, PC-3, 48 h): 291 µM | SI, PC-3 cells [3]: 0.07 | IC50 [4]: 21.1 µM | melting point: 96 to 97 °C

COc1cc(/C=C/C(=O)CCc2ccccc2)ccc1O [Compound 5d, (E)-1-(4-hydroxy-3-methoxyphenyl)-5-phenylpent-1-en-3-one]
IC50 [1]: 31.9 µM | SI, U87-MG cells [1]: 0.45 | IC50 ([2]; Homo sapiens, MCF7, 48 h): < 30 µM | IC50 [2]: 27.8 µM | SI, MCF-7 cells [2]: 0.52 | IC50 ([3]; Homo sapiens, PC-3, 48 h): < 30 µM | IC50 [3]: 20.9 µM | SI, PC-3 cells [3]: 0.69 | IC50 [4]: 14.4 µM | melting point: 89 to 90 °C

COc1cc(/C=C/C(=O)CCc2ccc(O)cc2)ccc1O [Compound 5j, (E)-1-(4-hydroxy-3-methoxyphenyl)-5-(4-hydroxyphenyl)pent-1-en-3-one]
IC50 [1]: 75.7 µM | SI, U87-MG cells [1]: 1.23 | IC50 ([2]; Homo sapiens, MCF7, 48 h): 35 µM | SI, MCF-7 cells [2]: 2.67 | IC50 ([3]; Homo sapiens, PC-3, 48 h): 32.2 µM | SI, PC-3 cells [3]: 2.90 | IC50 [4]: 93.4 µM | melting point: 131 to 132 °C

COc1ccc(/C=C/C(=O)CCc2ccccc2)cc1O [Compound 5e, (E)-1-(3-hydroxy-4-methoxyphenyl)-5-phenylpent-1-en-3-one]
IC50 [1]: 133 µM | SI, U87-MG cells [1]: 0.20 | IC50 ([2]; Homo sapiens, MCF7, 48 h): < 30 µM | IC50 [2]: 21.8 µM | SI, MCF-7 cells [2]: 1.21 | IC50 ([3]; Homo sapiens, PC-3, 48 h): 95.8 µM | SI, PC-3 cells [3]: 0.28 | IC50 [4]: 26.4 µM | melting point: 94 to 95 °C

COc1ccc(/C=C/C(=O)CCc2ccc(O)cc2)cc1 [Compound 5i, (E)-5-(4-hydroxyphenyl)-1-(4-methoxyphenyl)pent-1-en-3-one]
IC50 [1]: 233 µM | SI, U87-MG cells [1]: 0.06 | SI, MCF-7 cells [2]: 2.52 | SI, PC-3 cells [3]: 1.53 | IC50 [4]: 14.9 µM | Nuclear morphology by Hoechst 33258 staining, MCF-7 (MCF-7 cells): apoptotic cells with fragmented nuclei | Nuclear morphology by Hoechst 33258 staining, U87-MG (U87-MG cells): apoptotic cells with fragmented nuclei

O=C(/C=C/c1ccc(O)c(O)c1)CCc1ccccc1 [Compound 5f, (E)-1-(3,4-dihydroxyphenyl)-5-phenylpent-1-en-3-one]
IC50 [1]: 33.4 µM | SI, U87-MG cells [1]: 1.29 | IC50 ([2]; Homo sapiens, MCF7, 48 h): 544 µM | SI, MCF-7 cells [2]: 0.08 | IC50 ([3]; Homo sapiens, PC-3, 48 h): 97.5 µM | SI, PC-3 cells [3]: 0.44 | IC50 [4]: 43.1 µM

O=C(/C=C/c1ccc(O)cc1)CCc1ccc(O)cc1 [Compound 5h, (E) 1,5-bis(4-hydroxyphenyl)pent-1-en-3-one]
IC50 [1]: 358 µM | SI, U87-MG cells [1]: 0.14 | IC50 ([2]; Homo sapiens, MCF7, 48 h): < 30 µM | IC50 [2]: 26.7 µM | SI, MCF-7 cells [2]: 1.92 | IC50 ([3]; Homo sapiens, PC-3, 48 h): 437 µM | SI, PC-3 cells [3]: 0.12 | IC50 [4]: 51.4 µM | melting point: 146 to 147 °C

O=C(/C=C/c1ccc(O)cc1)CCc1ccccc1 [Compound 5b, (E)-1-(4-hydroxyphenyl)-5-phenylpent-1-en-3-one]
IC50 [1]: 70.9 µM | SI, U87-MG cells [1]: 0.08 | SI, MCF-7 cells [2]: 0.58 | IC50 ([3]; Homo sapiens, PC-3, 48 h): < 30 µM | IC50 [3]: 22 µM | SI, PC-3 cells [3]: 0.25 | IC50 [4]: 5.51 µM | melting point: 136 to 137 °C

COc1cccc2c1C(=O)c1c(O)c3c(c(O)c1C2=O)C[C@@](O)(C(=O)CO)C[C@@H]3O[C@H]1C[C@H](N)[C@H](O)[C@H](C)O1 [DOX control (+), doxorubicin, reference compound]
IC50 [1]: 8.95 µM | SI, U87-MG cells [1]: 7.20 | IC50 ([2]; Homo sapiens, MCF7, 48 h): 14.7 µM | SI, MCF-7 cells [2]: 4.38 | IC50 ([3]; Homo sapiens, PC-3, 48 h): 6.76 µM | SI, PC-3 cells [3]: 9.53 | IC50 [4]: 64.4 µM

COc1ccc(/C=C/C(=O)CCc2ccc(O)cc2)cc1O [Compound 5k, (E)-1-(3-hydroxy-4-methoxyphenyl)-5-(4-hydroxyphenyl)pent-1-en-3-one]
IC50 [1]: 52.6 µM | SI, U87-MG cells [1]: 1.32 | IC50 ([2]; Homo sapiens, MCF7, 48 h): 203 µM | SI, MCF-7 cells [2]: 0.34 | IC50 ([3]; Homo sapiens, PC-3, 48 h): 45.1 µM | SI, PC-3 cells [3]: 1.54 | IC50 [4]: 69.3 µM | melting point: 130 to 131 °C

COc1ccc(/C=C/C(=O)CCc2ccccc2)cc1 [Compound 5c, (E)-1-(4-methoxyphenyl)-5-phenylpent-1-en-3-one]
IC50 [1]: 213 µM | SI, U87-MG cells [1]: 0.42 | IC50 ([2]; Homo sapiens, MCF7, 48 h): 50.2 µM | SI, MCF-7 cells [2]: 1.84 | IC50 ([3]; Homo sapiens, PC-3, 48 h): 439 µM | SI, PC-3 cells [3]: 0.21 | IC50 [4]: 92.3 µM | melting point: 95 to 96 °C

O=C(/C=C/c1ccccc1)CCc1ccccc1 [Compound 5a, (E)-1,5-diphenylpent-1-en-3-one]
IC50 [1]: 107 µM | SI, U87-MG cells [1]: 0.79 | SI, MCF-7 cells [2]: 7.45 | IC50 ([3]; Homo sapiens, PC-3, 48 h): 50.1 µM | SI, PC-3 cells [3]: 1.69 | IC50 [4]: 84.8 µM | Nuclear morphology by Hoechst 33258 staining, MCF-7 (MCF-7 cells): apoptotic cells with fragmented nuclei | Nuclear morphology by Hoechst 33258 staining, U87-MG (U87-MG cells): apoptotic cells with fragmented nuclei

O=C(/C=C/c1ccc(O)c(O)c1)CCc1ccc(O)cc1 [Compound 5l, (E)-1-(3,4-dihydroxyphenyl)-5-(4-hydroxyphenyl)pent-1-en-3-one]
IC50 [1]: 287 µM | SI, U87-MG cells [1]: 1.38 | IC50 ([2]; Homo sapiens, MCF7, 48 h): 317 µM | SI, MCF-7 cells [2]: 1.25 | IC50 ([3]; Homo sapiens, PC-3, 48 h): 185 µM | SI, PC-3 cells [3]: 2.14 | IC50 [4]: 396 µM | melting point: 202 to 203 °C
